ChEMBL document CHEMBL6120965, “Structure-Activity Relationship Studies Leading to the Discovery of Highly Water-Soluble and Biocompatible Acyclic Cucurbit[n]uril FY-3451 as a Universal Antagonist That Rapidly Reverses Neuromuscular Blocking Agents In Vivo” (J Med Chem, 2024)

How the values were obtained:
[1] = Water solubility of the compound measured at 25 degreeC; format: physicochemical
[2] = test system: Rattus norvegicus; experiment: Recovery of Roc-induced neuromuscular block in Sprague-Dawley rat assessed as […] ratio (TOFr) >= 90% by measuring recovery time at 25 mg/kg, iv (reference value: 597 seconds); format: functional
[3] = test system: Rattus norvegicus; experiment: Recovery of CisA-induced neuromuscular block in Sprague-Dawley rat assessed as […] ratio (TOFr) >= 90% by measuring recovery time at 80 mg/kg, iv (reference value: 784 seconds); format: functional
[4] = test system: Rocuronium; experiment: Binding affinity to Rocuronium by Competition UV-Vis titration method
[5] = Toxicity in iv dosed Sprague-Dawley rat assessed as maximum tolerated dose measured upto 14 days; format: organism-based; details: in vivo, 336 h, time < 14 day

Structure (SMILES) | solubility [1] [mg/mL] | Time [2] [s] | Time [3] [s] | Ka [4] | MTD [5] [mg/kg]
O=C1N2Cc3c(OCCCS(=O)(=O)[O-])ccc(OCCCS(=O)(=O)[O-])c3CN3C(=O)N4CN5C(=O)N6CN7C(=O)N8CN9C(=O)N%10Cc%11c(OCCCS(=O)(=O)[O-])ccc(OCCCS(=O)(=O)[O-])c%11CN%11C(=O)N(CN%12C(=O)N(CN%13C(=O)N(CN1C41CCCCC231)[C@H]5[C@H]6%13)[C@H]7[C@H]8%12)C91CCCCC%10%111.[Na+].[Na+].[Na+].[Na+] (stereo partly specified) | 520 | 203 |  |  | 
CN(C)C(=O)Oc1cccc([N+](C)(C)C)c1 [NEOSTIGMINE] |  | 409 | 276 |  | 
CC[C@]12N3Cc4c(OCCCS(=O)(=O)[O-])ccc(OCCCS(=O)(=O)[O-])c4CN1C(=O)N1CN4C(=O)N5CN6C(=O)N7CN8C(=O)N9Cc%10c(OCCCS(=O)(=O)[O-])ccc(OCCCS(=O)(=O)[O-])c%10CN%10C(=O)N(CN%11C(=O)N(CN%12C(=O)N(CN(C3=O)[C@]12CC)[C@@H]4[C@H]%125)[C@@H]6[C@H]%117)[C@]8(CC)[C@@]9%10CC.[Na+].[Na+].[Na+].[Na+] | 750 | 348 |  |  | 
O=C(O)CCSC[C@H]1O[C@@H]2O[C@H]3[C@H](O)[C@@H](O)[C@@H](O[C@H]4[C@H](O)[C@@H](O)[C@@H](O[C@H]5[C@H](O)[C@@H](O)[C@@H](O[C@H]6[C@H](O)[C@@H](O)[C@@H](O[C@H]7[C@H](O)[C@@H](O)[C@@H](O[C@H]8[C@H](O)[C@@H](O)[C@@H](O[C@H]9[C@H](O)C(O)[C@@H](O[C@H]1[C@H](O)[C@H]2O)O[C@@H]9CSCCC(=O)O)O[C@@H]8CSCCC(=O)O)O[C@@H]7CSCCC(=O)O)O[C@@H]6CSCCC(=O)O)O[C@@H]5CSCCC(=O)O)O[C@@H]4CSCCC(=O)O)O[C@@H]3CSCCC(=O)O (stereo partly specified) |  |  |  | 1.05 10^7/M | 
CC[C@]12N3Cc4c(c(OCCCS(=O)(=O)[O-])c5ccccc5c4OCCCS(=O)(=O)[O-])CN1C(=O)N1CN4C(=O)N5CN6C(=O)N7CN8C(=O)N9Cc%10c(c(OCCCS(=O)(=O)[O-])c%11ccccc%11c%10OCCCS(=O)(=O)[O-])CN%10C(=O)N(CN%11C(=O)N(CN%12C(=O)N(CN(C3=O)[C@]12CC)[C@@H]4[C@H]%125)[C@@H]6[C@H]%117)[C@]8(CC)[C@@]9%10CC.[Na+].[Na+].[Na+].[Na+] | 670 | 19 | 57 |  | 500
Cc1cc(OCCCS(=O)(=O)[O-])c2c(c1OCCCS(=O)(=O)[O-])CN1C(=O)N3CN4C(=O)N5CN6C(=O)N7CN8C(=O)N9Cc%10c(c(OCCCS(=O)(=O)[O-])cc(C)c%10OCCCS(=O)(=O)[O-])CN%10C(=O)N(CN%11C(=O)N(CN%12C(=O)N(CN%13C(=O)N(C2)C1(C)C%133C)C4C%125)C6C%117)C8(C)C%109C.[Na+].[Na+].[Na+].[Na+] (mixture of isomers) | 600 | 151 |  |  | 
COc1cc(OCCCS(=O)(=O)[O-])c2c(c1OCCCS(=O)(=O)[O-])CN1C(=O)N3CN4C(=O)N5CN6C(=O)N7CN8C(=O)N9Cc%10c(c(OCCCS(=O)(=O)[O-])cc(OC)c%10OCCCS(=O)(=O)[O-])CN%10C(=O)N(CN%11C(=O)N(CN%12C(=O)N(CN%13C(=O)N(C2)C1(C)C%133C)C4C%125)C6C%117)C8(C)C%109C.[Na+].[Na+].[Na+].[Na+] (stereo unspecified) | 870 | 40 |  |  | 
C[C@]12N3Cc4c(c(OCC(=O)[O-])c5ccccc5c4OCC(=O)[O-])CN1C(=O)N1CN4C(=O)N5CN6C(=O)N7CN8C(=O)N9Cc%10c(c(OCC(=O)[O-])c%11ccccc%11c%10OCC(=O)[O-])CN%10C(=O)N(CN%11C(=O)N(CN%12C(=O)N(CN(C3=O)[C@]12C)[C@@H]4[C@H]%125)[C@@H]6[C@H]%117)[C@]8(C)[C@@]9%10C.[Na+].[Na+].[Na+].[Na+] |  | 108 |  |  | 
C[C@]12N3Cc4c(c(OCCC(=O)[O-])c5ccccc5c4OCCC(=O)[O-])CN1C(=O)N1CN4C(=O)N5CN6C(=O)N7CN8C(=O)N9Cc%10c(c(OCCC(=O)[O-])c%11ccccc%11c%10OCCC(=O)[O-])CN%10C(=O)N(CN%11C(=O)N(CN%12C(=O)N(CN(C3=O)[C@]12C)[C@@H]4[C@H]%125)[C@@H]6[C@H]%117)[C@]8(C)[C@@]9%10C.[Na+].[Na+].[Na+].[Na+] |  | 95 |  |  | 
C[C@]12N3Cc4c(c(OCC(C(=O)[O-])C(=O)[O-])c5ccccc5c4OCC(C(=O)[O-])C(=O)[O-])CN1C(=O)N1CN4C(=O)N5CN6C(=O)N7CN8C(=O)N9Cc%10c(c(OCC(C(=O)[O-])C(=O)[O-])c%11ccccc%11c%10OCC(C(=O)[O-])C(=O)[O-])CN%10C(=O)N(CN%11C(=O)N(CN%12C(=O)N(CN(C3=O)[C@]12C)[C@@H]4[C@H]%125)[C@@H]6[C@H]%117)[C@]8(C)[C@@]9%10C.[Na+].[Na+].[Na+].[Na+].[Na+].[Na+].[Na+].[Na+] |  | 84 |  |  | 
CC[C@]12N3Cc4c(c(OCCCS(=O)(=O)[O-])c(C)c(C)c4OCCCS(=O)(=O)[O-])CN1C(=O)N1CN4C(=O)N5CN6C(=O)N7CN8C(=O)N9Cc%10c(c(OCCCS(=O)(=O)[O-])c(C)c(C)c%10OCCCS(=O)(=O)[O-])CN%10C(=O)N(CN%11C(=O)N(CN%12C(=O)N(CN(C3=O)[C@]12CC)[C@@H]4[C@H]%125)[C@@H]6[C@H]%117)[C@]8(CC)[C@@]9%10CC.[Na+].[Na+].[Na+].[Na+] | 940 | 31 | 130 |  | 
